Reference: PMC8070033, “Bimetallic Iron–Palladium Catalyst System as a Lewis-Acid for the Synthesis of Novel Pharmacophores Based Indole Scaffold as Anticancer Agents” (Molecules, 2021)

Tests used:
[1] = test system: PC3 cells (Prostate Cancer); test: PC3 cells (Prostate Cancer) MTT assay; type: cell-based; settings: for IC50: MTT assay, 48 hrs, ± SD from three independent experiments, NA: did not show anticancer activity at 30 µM; for anticancer activity against PC3 prostate cancer cell line (in words): in comparison to doxorubicin
Protocol: (§1) Cytotoxicity against BJ Human fibroblast cells, and anti-cancer activity against PC3, HeLa and MCF-7 cancer cell lines were evaluated by following the procedure as described in the literature (Supplementary Materials).
The Biological Activity Assays Protocols
A. PC3 cells (Prostate Cancer) assay […]
For this purpose, PC3 cells (Prostate Cancer) were cultured in Dulbecco’s Modified Eagle Medium, supplemented with 5% of fetal bovine serum (FBS), 100 IU/ml of penicillin and 100 µg/ml of streptomycin in 75 cm2 flasks, and kept in 5% CO2 incubator at 37 °C. Exponentially growing cells were harvested, counted with haemocytometer and diluted with a particular medium. Cell culture with the concentration of 1x10^5 cells/ml was prepared and introduced (100 µL/well) into 96-well plates. After overnight incubation, medium was removed and 200 µL of fresh medium was added with different concentrations of compounds (1-30µM). After 48 hrs, 200 µL MTT (0.5 mg/ml) was added to each well and incubated further for 4 hrs. Subsequently, 100µL of DMSO was added to each well. The extent of MTT reduction to formazan within cells was calculated by measuring the absorbance at 570 nm, using a micro plate reader (Spectra Max plus, Molecular Devices, CA, USA). The cytotoxicity was recorded as concentration causing 50% growth inhibition (IC50) for PC3 cells. The percent inhibition was calculated by using the following formula: […]
(§2) of positive control – mean of O.D of negative control)*100).
(§3) The results (% inhibition) were processed by using Soft- Max Pro software (Molecular Device, USA).
Standard drug used in the MTT assay was doxorubicin.
(§4) 1. Mosmann T. Rapid colorimetric assay for cellular growth and survival: application to proliferation and cytotoxicity assays. J Immunol Meth 1983, 65, 55–63. […]

[2] = test system: HeLa cells (Cervical Cancer); test: HeLa cells (Cervical Cancer) MTT assay; type: cell-based; settings: ± SD from three independent experiments, NA: did not show anticancer activity at 30 µM
Protocol: (§5) Cytotoxicity against BJ Human fibroblast cells, and anti-cancer activity against PC3, HeLa and MCF-7 cancer cell lines were evaluated by following the procedure as described in the literature (Supplementary Materials). […]
as §2, §3
(§6) Following concentrations were used to calculate (in case) of IC50:
(§7) Standard drug used in the MTT assay was doxorubicin. […]
C. HeLa cells (Cervical Cancer) assay
Cytotoxic activity of compounds was evaluated in 96-well flat-bottomed micro plates by using the standard MTT (3-[4, 5-dimethylthiazole-2-yl]-2, 5-diphenyl-tetrazolium bromide) colorimetric assay40.
For this purpose, HeLa cells (Cervical Cancer) were cultured in Minimum Essential Medium Eagle, supplemented with 5% of fetal bovine serum (FBS) , 100 IU/ml of penicillin and 100 µg/ml of streptomycin in 75 cm2 flasks, and kept in 5% CO2 incubator at 37 °C. Exponentially growing cells were harvested, counted with haemocytometer and diluted with a particular medium. Cell culture with the concentration of 6x10^4 cells/ml was prepared and introduced (100 µL/well) into 96 -well plates. After overnight incubation, medium was removed and 200 µL of fresh medium was added with different concentrations of compounds (1-30µM). After 48 hrs, 200 µL MTT (0.5 mg/ml) was added to each well and incubated further for 4 hrs. Subsequently, 100µL of DMSO was added to each well. The extent of MTT reduction to formazan within cells was calculated by measuring the absorbance at 570 nm, using a micro plate reader (Spectra Max plus, Molecular Devices, CA, USA). The cytotoxicity was recorded as concentration causing 50% growth inhibition (IC 50) for HeLa. The percent inhibition was calculated by using the following formula: […]
The results (% inhibition) were processed by using Soft - Max Pro software (Molecular Device, USA).
as §4

[3] = test system: Human fibroblast BJ; test: Cytotoxicity MTT assay, BJ human fibroblast cells; type: cell-based; settings: 48 hrs, ± SD from three independent experiments, NA: did not show activity at 30 µM
Protocol: as §1
The Biological Activity Assays Protocols […]
(§8) of positive control – mean of O.D of negative control)*100). […]
as §7
B. Cytotoxicity assay Protocol (BJ Human fibroblast cells) […]
standard MTT (3-[4, 5-dimethylthiazole-2-yl]-2, 5-diphenyl-tetrazolium bromide) colorimetric assay (Price & J. McMillan1, 1990). For this purpose, BJ Human fibroblast cells were cultured in Dulbecco’s Modified Eagle Medium, supplemented with 10% of fetal bovine serum (FBS), 100 IU/ml of penicillin and 100 µg/ml of streptomycin and 2 mM L‐glutamine in 75 cm2 flasks, and kept in 5% CO2 incubator at 37 °C (Mannerström, Toimela, Sarkanen & Heinonen, 2017).
Exponentially growing cells were harvested, counted with haemocytometer and diluted with a particular medium. Cell culture with the concentration of 6x10^4cells/ml was prepared and introduced (100 µL/well) into 96-well plates. After overnight incubation, medium was removed and 200 µL of fresh medium was added with different concentrations of compounds (1 -30µM). After 48 hrs, 200 µL MTT (0.5 mg/ml) was added to each well and incubated further for 3 hrs.
Subsequently, 100µL of DMSO was added to each well. The extent of MTT reduction to formazan within cells was calculated by measuring the absorbance at 550 nm, using a micro plate reader (Spectra Max plus, Molecular Devices, CA, USA). The cytotoxicity was recorded as concentra tion causing 50% growth inhibition (IC50) for BJ cells. The percent inhibition was calculated by using the following […]
Following concentrations were used to calculate (in case) of IC50: […]

[4] = test system: MCF-7 breast cancer cell line; test: MCF-7 breast cancer cell line MTT assay; type: cell-based; settings: Homo sapiens, MCF7, 48 h, MTT assay, 48 hours; ± SD from three independent experiments; NA: did not show anticancer activity at 30 µM
Protocol: as §5, §8, §6, §7
D. MCF-7 breast cancer cell line assay.
MTT assay is a rapid and quantitative assay capable of measuring the surviving or proliferating cells.
It is based on the reduction of tetrazolium salt MTT (3-(4,5-dimethylthiazol-yl)-2,5-diphenyl tetrazolium bromide) by various dehydrogenase enzymes present in living cells. The tetrazolium ring present in MTT is cleaved in active mitochondria, which results in production of purple colored formazan crystals. These crystals are dissolved in DMSO and optical density of the color produced is taken by spectrophotometer (ELISA reader), with high efficiency and accuracy.
This assay was optimized and slightly modified according to our cell lines, i.e. MCF-7 breast cancer cell […]
1. MCF-7 cell line were cultured in Dulbecco’s modified Eagle medium (containing 10% fetal bovine serum) in 75 cc flasks, and kept in 5% CO 2 incubator at 37 °C.
2. Upon confluency, cells were harvested and plated in 96-well tissue culture treated flat bottom plates (seeding density 8,000 cells/well for MCF-7) in 100 µL medium.
3. Next day, compounds were added in triplicate at 50 µM concentration, and incubated for 48 hours. For natural extracts, the concentration was 50 µg/mL.
4. After 48 hrs incubation, the compounds were removed and 200 µL MTT at 0.5 mg/mL was added to each well and incubated at 37 °C for 3 hours.
5. Formazan crystals, formed by reduction of MTT were dissolved in 100 µL DMSO and absorbance was taken at 570 nm using micro-plate reader (Spectra Max plus, Molecular […]
6. The percent inhibition or decrease in viable cells was calculated by following formula:
% Inhibition = 100 - (mean of O.D. of test compound - mean of O.D. of negative control) / (mean of O.D. of positive control - mean of O.D. of negative control) x 100) […]
Twenty (20) mM stock concentration of compounds were diluted to working concentration of 50 µM, and then further serial dilutions were made in order to get less than 50% inhibition.
The IC50 was then calculated by using EZ-fit5 software.

melting point | IC50 ([1]; Homo sapiens, PC-3, 48 h) | IC50 ([2]; Homo sapiens, HeLa, 48 h) | IC50 [4] | IC50 [1] | IC50 ([1]; listed as doxorubicin) | IC50 ([2]; 48 hrs) | IC50 ([2]; 48 hrs, listed as doxorubicin) | SMILES | IC50 [3] | anticancer activity against PC3 prostate cancer cell line (in words) [1]
150 to 151 °C | 29.7 ± 0.1 µM | 13.8 ± 0.3 µM | – | – | – | – | – | O=C(CC(c1cc2ccccc2s1)c1c[nH]c2ccccc12)c1ccc(Cl)cc1 (stereo not shown) [Compound 3o, 3-(Benzo[b]thiophen-2-yl)-1-(4-chlorophenyl)-3-(1H-indol-3-yl)propan-1-one] | > 50 µM | –
108 to 109 °C | 26.3 ± 0.8 µM | 12.6 ± 0.4 µM | – | – | – | – | – | O=C(CC(c1cc2ccccc2o1)c1c[nH]c2ccccc12)c1ccc(Br)cc1 (stereo not shown) [Compound 3d, 3-(Benzofuran-2-yl)-1-(4-bromophenyl)-3-(1H-indol-3-yl)propan-1-one] | > 30 µM | –
173 to 174 °C | 16 ± 0.1 µM | 17.3 ± 0.7 µM | – | – | – | – | – | O=C(CC(c1cc2ccccc2o1)c1c[nH]c2ccc(Br)cc12)c1ccccc1[N+](=O)[O-] (stereo not shown) [Compound 3j, 3-(Benzofuran-2-yl)-3-(5-bromo-1H-indol-3-yl)-1-(2-nitrophenyl)propan-1-one] | – | –
162 to 163 °C | 16.3 ± 1.6 µM | 11.1 ± 0.6 µM | – | – | – | – | – | COc1cccc(C(=O)CC(c2cc3ccccc3o2)c2c[nH]c3ccccc23)c1 (stereo not shown) [Compound 3l, 3-(Benzofuran-2-yl)-3-(1H-indol-3-yl)-1-(3-methoxyphenyl)propan-1-one] | > 30 µM | –
67 to 68 °C | 20.4 ± 0.4 µM | 12.4 ± 0.2 µM | – | – | – | – | – | COc1ccccc1C(=O)CC(c1cc2ccccc2o1)c1c[nH]c2ccccc12 (stereo not shown) [Compound 3r, 3-(Benzofuran-2-yl)-3-(1H-indol-3-yl)-1-(2-methoxyphenyl)propan-1-one] | – | inactive
121 to 122 °C | 29.7 ± 0.4 µM | – | – | – | – | – | – | O=C(CC(c1cc2ccccc2s1)c1c[nH]c2ccccc12)c1ccc(Br)cc1 (stereo not shown) [Compound 3h, 3-(Benzo[b]thiophen-2-yl)-1-(4-bromophenyl)-3-(1H-indol-3-yl)propan-1-one] | > 30 µM | –
165 to 166 °C | 18 ± 0.3 µM | 18.8 ± 0.2 µM | – | – | – | – | – | O=C(CC(c1cc2ccccc2s1)c1c[nH]c2ccccc12)c1ccc(C(F)(F)F)cc1 (stereo not shown) [Compound 3q, 3-(Benzo[b]thiophen-2-yl)-3-(1H-indol-3-yl)-1-(4-(trifluoromethyl)phenyl)propan-1-one] | > 50 µM | –
– | 27.6 ± 0.1 µM | 12.7 ± 0.1 µM | – | – | – | – | – | O=C(CC(c1cc2ccccc2s1)c1c[nH]c2ccccc12)c1ccc(F)cc1 (stereo not shown) [Compound 3p, 3-(Benzo[b]thiophen-2-yl)-1-(4-fluorophenyl)-3-(1H-indol-3-yl)propan-1-one] | > 50 µM | –
– | – | – | 0.79 ± 0.05 µM | 1.9 ± 0.4 µM | 0.9 ± 0.14 µM | 0.9 ± 0.14 µM | 1.9 ± 0.4 µM | COc1cccc2c1C(=O)c1c(O)c3c(c(O)c1C2=O)C[C@@](O)(C(=O)CO)C[C@@H]3O[C@H]1C[C@H](N)[C@H](O)[C@H](C)O1 [Doxorubicin, doxorubicin, reference compound] | – | –
123 to 124 °C | 7.8 ± 0.4 µM | 13.6 ± 0.4 µM | – | – | – | – | – | O=C(CC(c1cc2ccccc2o1)c1c[nH]c2cc(F)ccc12)c1ccc(Br)cc1 (stereo not shown) [Compound 3e, 3-(Benzofuran-2-yl)-1-(4-bromophenyl)-3-(6-fluoro-1H-indol-3-yl)propan-1-one] | > 30 µM | –
154 to 155 °C | – | 14.9 ± 0.6 µM | – | – | – | – | – | O=C(CC(c1cc2ccccc2o1)c1c[nH]c2ccccc12)c1ccccc1[N+](=O)[O-] (stereo not shown) [Compound 3k, 3-(Benzofuran-2-yl)-3-(1H-indol-3-yl)-1-(2-nitrophenyl)propan-1-one] | – | –
159 to 160 °C | 20.4 ± 0.4 µM | 12.4 ± 0.2 µM | – | – | – | – | – | O=C(CC(c1cc2ccccc2s1)c1c[nH]c2ccccc12)c1ccccc1 (stereo not shown) [Compound 3n, 3-(Benzo[b]thiophen-2-yl)-3-(1H-indol-3-yl)-1-phenylpropan-1-one] | > 50 µM | –
112 to 113 °C | 22 ± 1.3 µM | 14.7 ± 1.1 µM | – | 20 ± 1.3 µM | – | – | – | O=C(CC(c1cc2ccccc2o1)c1c[nH]c2cc(F)ccc12)c1ccc(Cl)cc1 (stereo not shown) [Compound 3g, 3-(Benzofuran-2-yl)-1-(4-chlorophenyl)-3-(6-fluoro-1H-indol-3-yl)propan-1-one] | > 30 µM | –
139 to 140 °C | – | 15.2 ± 0.6 µM | – | – | – | – | – | O=C(CC(c1cc2ccccc2o1)c1c[nH]c2cc(F)ccc12)c1ccccc1[N+](=O)[O-] (stereo not shown) [Compound 3i, 3-(Benzofuran-2-yl)-3-(6-fluoro-1H-indol-3-yl)-1-(2-nitrophenyl)propan-1-one] | – | complete loss of anticancer activity
